Experimental findings from a melting point compilation (Tetko et al.) are described below.

Turning to `CC(C)N(C)S(=O)(=O)c1ccc(F)c(C(=O)O)c1`, the melting point was 194 to 196 °C. Under `COC(=O)c1nc(Cl)c2ccccc2c1OC` stands 103 to 105 °C; under `CCC1(CO)CCNCC1`, 59 to 61 °C. In the case of `Nc1ccc(CNC(=O)c2ccc(C(F)(F)F)cc2)cc1` it was 163 to 165 °C; in that of `N#Cc1nc(-c2ccco2)oc1N1CCNCC1`, 129 to 131 °C. Under `C=CCN=c1nn[nH]n1C` stands 66 to 68 °C; under `O=[N+]([O-])c1ccc(F)c([N+](=O)[O-])c1F`, 37 to 39 °C.

The compound `Nc1ccccc1C(=O)Nc1cccc(Cl)c1` displayed a melting point of 131 to 135 °C. Under `CC(C)C(Br)C(=O)N1CCc2ccccc2C1` (centres undefined) stands 90 to 92 °C. In the case of `COC(=O)C1CCCc2[nH]ncc21` (centres undefined) it was 84 to 86 °C. Under `C=CCN1C(=O)C(=O)c2ccccc21` stands 108 to 110 °C; under `N=c1nc[nH]c2c1ncn2CCC(N)=O`, 255 to 257 °C; under `O=C(O)COc1ccc([N+](=O)[O-])c(F)c1`, 149 to 151 °C. For `NS(=O)(=O)c1ccc2c(c1)C(=O)NCC2`, the melting point lay in the range of 240 to 242 °C. In the case of `Cc1nc(-c2ccsc2)ccc1C(=O)O` it was 174 to 176 °C. Under `O=C(O)c1ccccc1NS(=O)(=O)c1ccc(F)cc1` stands 165 to 167 °C. Under `CCCS(=O)(=O)N1CCCC(C(=O)O)C1` (centres undefined) stands 122 to 124 °C; under `Cc1ccc(C(N)=O)n1C`, 152 to 154 °C. `Clc1ccc(-n2cccn2)cn1` showed a melting point of 107 to 109 °C.

`CC(C)NS(=O)(=O)c1ccccc1CN` came in with a melting point of 79 to 81 °C. `Cc1ccc(SC(C(=O)O)c2ccccc2)c(C)c1` (centres undefined) gave a melting point of 130 to 132 °C. In turn, `COc1nc2sccn2c1C=O` had a melting point of 130 to 132 °C. In the case of `O=C(O)C1CS(=O)(=O)c2ccccc2O1` (centres undefined) it was 239 to 241 °C; in that of `CCn1c(C)cs/c1=N\c1ccc(Cl)cc1`, 190 to 192 °C; in that of `Cc1cc(/C=C(\C#N)C(=O)O)c(C)n1CCC(C)C`, 229 to 231 °C. Consider `O=C(O)c1cc(CCc2ccccc2)ccc1O`, for which the melting point fell in the range of 156 to 158 °C. In the case of `CSc1ccc(C#N)c(Cl)c1` it was 117 to 119 °C; in that of `CN(C)C(=O)c1ccc(Cl)nn1`, 137 to 139 °C; in that of `CNC(=Nc1ccnn1C(C)C)c1ccco1`, 233 to 235 °C. Compound `CCC(C)C(C)S(N)(=O)=O` (centres undefined) gave a melting point of 44 to 46 °C.

Turning to `CCOC(=O)c1c(C)oc2nc(CCl)nc(N)c12`, the melting point is 191 to 195 °C. Consider `NC(=O)c1cc(Br)c(N)c(Br)c1`, for which the melting point lay within 182 to 184 °C.

Regarding `Nc1nnc(CC(F)(F)F)o1`, the melting point fell in the range of 132 to 134 °C. In the case of `NNc1ccc(S(=O)(=O)N2CCC(Cc3ccccc3)CC2)cn1` it was 185 to 187 °C; in that of `CCC(=O)c1c(C)nn(CCS(C)(=O)=O)c1C`, 154 to 156 °C. Under `COC(=O)c1ccc(F)cc1S(=O)(=O)Cl` stands 63 to 65 °C; under `Cc1cccc([N+](=O)[O-])c1C(=O)n1ccnc1`, 104 to 106 °C; under `O=C(O)CCSc1ccc(F)cc1`, 76 to 78 °C. In the case of `Cc1csc(Sc2ccc(C(=O)O)cc2[N+](=O)[O-])n1` it was 207 to 210 °C; in that of `NCCc1nc2ccccc2[nH]1`, 215 to 230 °C; in that of `COC(=O)CCNc1ccc(C)cc1`, 59 to 61 °C.

Take `N#Cc1cc(C(=O)c2ccccc2O)cn(-c2ccccn2)c1=O`: the melting point was 147 to 150 °C. Under `CC(C)c1nc2ccccc2n1CC#N` stands 116 to 118 °C; under `O=S(=O)(c1cccc(-c2nnc(S)n2-c2ccc(OC(F)(F)F)cc2)c1)N1CCOCC1`, 247 to 249 °C; under `Cc1[nH]c2c(C(=O)O)cccc2c1C`, 206 to 208 °C. Turning to `Cc1ccc(Cl)cc1N1CC(C(=O)O)CC1=O` (centres undefined), the melting point was 129 to 131 °C. Compound `Cc1ccc(S(=O)(=O)N2CCC(C(=O)O)CC2)c(C)c1` showed a melting point of 200 to 202 °C. Under `CSc1ccc(N)cc1F` stands 49 to 51 °C; under `Cc1ccc(N)cc1S(=O)(=O)N1CCCCC1`, 105 to 107 °C. In the case of `CC(C)(C#N)Cc1ccccc1` it was 47 to 49 °C.

As to `CNC(C)c1ccc(-n2cnc3ccccc32)cc1` (centres undefined), the melting point was in the range of 62 to 64 °C.

`CCCC(C)=CC(=O)O` displayed a melting point of 33 to 35 °C. Under `Nc1cc(S(=O)(=O)NCCCN2CCOCC2)ccc1Cl` stands less than 17 °C. For `O=[N+]([O-])c1cc(Cl)ccc1S(=O)(=O)Cl`, the melting point is 74 to 76 °C.

On to `CCOC(=O)c1cc2c(F)cc(Br)cc2[nH]1`, for which the melting point is 194 to 196 °C. Under `CC(C)(NC(=O)Nc1ccccc1)C(=O)O` stands 165 to 167 °C; under `O=c1[nH]c(CNCC2CCCO2)nc2ccccc12` (centres undefined), 128 to 132 °C; under `O=C(O)c1cccc(-c2ncn[nH]2)c1`, 239 to 241 °C. Under `O=Cc1nc(-c2ccccc2)cs1` stands 61 to 63 °C. Consider `Cc1cc(C(=O)O)c(C)n1-c1cccc(Cl)c1`, for which the melting point fell in the range of 160 to 162 °C.

The compound `CSc1cccc(N)c1C` came in with a melting point of 44 to 46 °C. In the case of `CC(=O)c1cccc(OCc2cc(C(=O)O)no2)c1` it was 169 to 171 °C.

`Sc1ncn(-c2ccccc2)n1`: the melting point was 173 to 175 °C.

Compound `O=C(CCl)N1CCSc2ccccc21` had a melting point of 53 to 55 °C. For `Cc1ccc(S(=O)(=O)CCC(=O)O)cc1`, the melting point was 108 to 110 °C. In the case of `Cc1cc2cn[nH]c2cc1N` it was 219 to 221 °C; in that of `Cc1c(C(=O)O)sc2nc(C(F)(F)F)ccc12`, 265 to 267 °C. In the case of `Oc1ccc(OCC(F)(F)F)cc1` it was 60 to 62 °C.

Compound `Nc1nc(-c2cccc(C(F)(F)F)c2)cs1` showed a melting point of 85 to 87 °C. Under `Cc1c(C(=O)O)cc([N+](=O)[O-])c(C)c1[N+](=O)[O-]` stands 201 to 203 °C.

Turning to `COc1ccc(S(=O)(=O)Nc2cccnc2)cc1N`, the melting point lay within 153 to 155 °C. In the case of `CC(C(N)=NO)n1ccnc1` (centres undefined) it was 151 to 153 °C; in that of `O=C(CCl)NC1CCS(=O)(=O)C1` (centres undefined), 89 to 98 °C; in that of `CNC(CCO)c1ccccc1` (centres undefined), 56 to 58 °C. Under `CCC1(C(C)C)NC(=O)NC1=O` (centres undefined) stands 164 to 166 °C; under `Cn1c(=O)c2ccccc2n2c(CCl)nnc12`, 228 to 229 °C. Under `Cc1n[nH]c(=O)c2noc(C)c12` stands 213 to 215 °C.

On to `O=C(O)C1CCCN1S(=O)(=O)c1ccc(Cl)s1` (centres undefined), for which the melting point lay within 44 to 46 °C. Under `O=C(O)Cc1csc(-c2ccc(Br)s2)n1` stands 142 to 144 °C; under `N#Cc1cnc2c(OC(F)F)cccc2c1Cl`, 120 to 122 °C; under `Cc1csc2ccc(C#N)cc12`, 97 to 99 °C.

On to `CC(NC(=O)OC(C)(C)C)C1CCNCC1` (centres undefined), for which the melting point is 103 to 105 °C. In turn, `O=C(CCl)c1ccc(N2CCCC2=O)cc1` displayed a melting point of 127 to 129 °C. In the case of `O=C(O)C(Cc1ccccc1)NC(=O)C(c1ccccc1)c1ccccc1` (centres undefined) it was 149 to 151 °C; in that of `O=C(O)C1(C(=O)NC2CC2)CCC1`, 139 to 141 °C; in that of `NNC(=O)N1CCSCC1`, 129 to 131 °C.

Regarding `O=C(O)c1cccc(S(=O)(=O)N2CCN(c3ccc(F)cc3)CC2)c1`, the melting point is 129 to 131 °C. Compound `CC(=O)Nc1ccc(Br)cc1[N+](=O)[O-]` had a melting point of 104 to 106 °C. Under `CC(C)(C)Oc1cccc(CCC(=O)O)n1` stands 82 to 84 °C; under `Cc1cc(Cl)n2ncnc2c1`, 93 to 95 °C. In the case of `CSCCC(NS(=O)(=O)c1ccc2c(c1)OCCO2)C(=O)O` (centres undefined) it was 93 to 96 °C; in that of `COCCOc1ccc(C(F)(F)F)cc1NC(=O)CCl`, 80 to 82 °C.

`CCOC(=O)c1cnn(-c2nc3ccccc3s2)c1N` had a melting point of 137 to 139 °C. Under `Clc1cncc(N2CCCC2)n1` stands 53 to 55 °C. In the case of `COc1ccccc1NC(=O)c1ccc(NC(=O)C(C)Cl)cc1` (centres undefined) it was 149 to 151 °C; in that of `O=C(O)c1ccnc(NC2CCCC2)c1`, 296 to 298 °C; in that of `CSc1ccc(C=NO)cc1`, 114 to 116 °C. Under `CCOc1cc(Cl)ccc1C(=O)O` stands 119 to 121 °C.

Compound `Clc1nc(CN2CCOCC2)nc2scc(-c3cccs3)c12` displayed a melting point of 105 to 107 °C. In the case of `NS(=O)(=O)c1cnc(Cl)s1` it was 128 to 130 °C; in that of `CC(C)CNc1c(N)n(CC(C)C)c(=O)[nH]c1=O`, 197 to 199 °C. In turn, `COc1cccc(-c2nnc(N)s2)c1` yielded a melting point of 156 to 158 °C. In the case of `Nc1cnc(-c2cccc(F)c2)nc1`, the melting point fell in the range of 112 to 114 °C. Under `CC(C)Cn1ncc2cc(C(=O)O)cnc21` stands 175 to 177 °C. In the case of `Cc1ccc2cc(C=O)c(Cl)nc2c1` it was 148 to 150 °C.

With `COc1cc(C=O)ccc1OCc1ccc(Br)cc1`, the melting point lay within 74 to 76 °C. Under `CC(=O)Nc1cc(C(=O)CCl)ccc1O` stands 188 to 190 °C. `COCCCOc1cccc(C(=O)O)c1` displayed a melting point of 81 to 83 °C. Under `NC(=O)COc1ccc(C(=O)O)cc1` stands 273 to 275 °C; under `CC(C)(C)N1C(=O)CNC1=O`, 84 to 86 °C; under `O=C(O)C1CCN(C(=O)c2cccc3ccccc23)CC1`, 190 to 192 °C.

`CC(=CC(=O)O)c1ccccc1Cl` came in with a melting point of 75 to 77 °C. As to `O=C(Nc1ccc(Cl)cc1)Nc1ccccc1Br`, the melting point fell in the range of 222 to 224 °C.

The compound `N#Cc1cccc(N2C(=O)CCC2=O)c1` had a melting point of 134 to 136 °C.

In turn, `OCc1nc2cc(Cl)ccc2s1` returned a melting point of 113 to 115 °C. Under `COC(=O)c1cc(OC)c(OC(F)F)cc1N` stands 89 to 91 °C. Under `O=CNc1cccc(O)c1` stands 115 to 117 °C; under `O=C(O)c1cc2cccc(F)c2o1`, 242 to 244 °C. Under `O=Cc1ccc(-c2cc(Cl)ccc2Cl)o1` stands 84 to 86 °C.

In general, melting point refers to the temperature, or range, at which the solid turns liquid.
